Reference: patent US10202347B2, “Compound, production method therefor, and use of said compound” (MICROBIAL CHEMISTRY RESEARCH FOUNDATION, priority 2013, dated 2019)

Columns and labels:
[1] = tested on: human stomach cancer cells MKN-74 and normal stromal cells derived from the human stomach, Hs738; experiment: Anti-cancer activity in vivo, Test Example 2-2: MKN-74 and stromal cells Hs738, subcutaneous tumor in nude mice; parameters: species or system BALB/c nu/nu nude mice; conditions: tumor transplanted together with stromal cells Hs738, intravenous administration at 12.5 mg/kg, FIGS. 1C, 1D
Experimental: A test was performed in the same manner as in Test Example 2-1 except that the use of the human stomach cancer cells MKN-74 alone in Test Example 2-1 was changed to use of the human stomach cancer cells MKN-74 and the normal stromal cells derived from the human stomach, Hs738.
Note that, a cell liquid and inoculation of the cell liquid to mice were as follows.
Cultured human stomach cancer cells MKN-74 and normal stromal cells derived from the human stomach, Hs738 were respectively trypsinized to be peeled off from the culture dishes. The above human stomach cancer cells MKN-74 (8×10^6 cells) and the above normal stromal cells derived from the human stomach, Hs738 (8×10^6 cells) were dispersed in 0.3 mL DMEM containing 10% FBS and mixed with 0.5 mL growth factor-reduced Matrigel (product of BD Biosciences Co.).
The above mixed cell liquid (0.1 mL) (a mixture of cancer cells: 1×10^6 cells, and stromal cells: 1×10^6 cells) was subcutaneously inoculated to the left groin region of the above mice.

[2] = tested on: human stomach cancer cells MKN-74; experiment: Anti-cancer activity in vivo, Test Example 2-1: MKN-74 alone, subcutaneous tumor in nude mice; parameters: species or system BALB/c nu/nu nude mice; conditions: intravenous administration at 12.5 mg/kg, FIGS. 1A, 1B
Experimental: BALB/c nu/nu nude mice (female, 5 weeks old, product of Charles River Co.) were bred under the SPF conditions.
Cultured human stomach cancer cells MKN-74 were trypsinized, and the human stomach cancer cells MKN-74 (8×10^6 cells) peeled off from the culture dish were dispersed in 0.3 mL DMEM containing 10% FBS and mixed with 0.5 mL growth factor-reduced Matrigel (product of BD Biosciences Co.).
The above mixed cell liquid (0.1 mL) (cancer cells: 1×10^6 cells) was subcutaneously inoculated to the left groin region of the above mice.
The compound expressed by the Structural Formula (2) or the compound expressed by the Structural Formula (13) was intravenously administered for a predetermined period, and tumor formed under the skin was cut out and measured for weight. Note that, the administration dose of the compound expressed by the Structural Formula (2) or the compound expressed by the Structural Formula (13) was 12.5 mg/kg per administration day.
Also, a tumor volume was calculated from the following formula referring to the above NPL 1. Tumor volume (mm^3)=(major axis×minor axis^2)/2
Note that, as controls, those to which physiological saline (vehicle) was administered instead of the compound expressed by the Structural Formula (2) or the compound expressed by the Structural Formula (13) were tested in the same manner.

CCCCCCCc1c(C)c(=O)c2ccccc2n1CN=C(SC)SC [Structural Formula (13)]
tumor suppression (tumor volume, tumor weight Day 21) [1]: significant suppression

CCCCCCCCc1nc2ccccc2c(OCC(=O)O)c1C [Structural Formula (2)]
tumor suppression (tumor volume, tumor weight Day 21) [2]: significant suppression
